One may read the Km as the substrate concentration at which the rate is half of its maximum.

The structures appear in SMILES notation. Substitutions are numbered along the chain they refer to.

Assay type in all cases: biochemical
Assay [1] deals with T1, rCviUPO (native, non-mutated recombinant CviUPO) (Achaetomiella virescens, UniProt Z9FBJ6W4Y2, F87A/T157A, form not given).
T1 construct: codon-optimized gene in pET23a, expressed in E. coli as active cytosolic enzyme without purification tag; heme-thiolate (EC 1.11.2.1); purified by cation exchange and Superdex 75
T1 sequence (Z9FBJ6W4Y2 1-226 F87A/T157A): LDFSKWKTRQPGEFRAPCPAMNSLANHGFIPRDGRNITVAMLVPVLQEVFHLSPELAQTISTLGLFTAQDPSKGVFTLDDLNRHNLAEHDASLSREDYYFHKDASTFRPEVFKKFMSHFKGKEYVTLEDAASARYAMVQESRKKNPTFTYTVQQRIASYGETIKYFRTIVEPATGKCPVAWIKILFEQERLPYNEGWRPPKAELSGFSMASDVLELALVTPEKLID
The assay is described as follows: GC-MS quantification of oxygenated products, […] min reactions. To be noted: substrate inhibition constant; 24 mM H2O2, 50 mM phosphate pH 7, 20% acetone.

The target of assay [2] is T2, rCviUPO (native, non-mutated recombinant CviUPO) (Achaetomiella virescens, UniProt Z9FBJ6W4Y2, I60A/L63A/F87A/T157A, form not given).
T2 construct: codon-optimized gene in pET23a, expressed in E. coli as active cytosolic enzyme without purification tag; heme-thiolate (EC 1.11.2.1); purified by cation exchange and Superdex 75
T2 sequence (Z9FBJ6W4Y2 1-226 I60A/L63A/F87A/T157A): T1 sequence (Z9FBJ6W4Y2 1-226 F87A/T157A) with I60A, L63A
Described as above. The following applies: substrate inhibition constant; 24 mM H2O2, 50 mM phosphate pH 7, 20% acetone.

In assay [3] the target is T3, rCviUPO (native, non-mutated recombinant CviUPO) (Achaetomiella virescens, UniProt Z9FBJ6W4Y2, T157A).
T3 construct: codon-optimized gene in pET23a, expressed in E. coli as active cytosolic enzyme without purification tag; heme-thiolate (EC 1.11.2.1); purified by cation exchange and Superdex 75
T3 sequence (Z9FBJ6W4Y2 1-226 T157A): T1 sequence (Z9FBJ6W4Y2 1-226 F87A/T157A) with A87F
Described as above. To be noted: 24 mM H2O2, 50 mM phosphate pH 7, 20% acetone.

The target of assay [4] is T4, rCviUPO (native, non-mutated recombinant CviUPO) (Achaetomiella virescens, UniProt Z9FBJ6W4Y2, F87A).
T4 construct: codon-optimized gene in pET23a, expressed in E. coli as active cytosolic enzyme without purification tag; heme-thiolate (EC 1.11.2.1); purified by cation exchange and Superdex 75
T4 sequence (Z9FBJ6W4Y2 1-226 F87A): T1 sequence (Z9FBJ6W4Y2 1-226 F87A/T157A) with A157T
Described as above. To be noted: substrate inhibition constant; 24 mM H2O2, 50 mM phosphate pH 7, 20% acetone.

For assay [5], the target named is T4, rCviUPO (native, non-mutated recombinant CviUPO). The assay is described as above. To be noted: 24 mM H2O2, 50 mM phosphate pH 7, 20% acetone; substrate-inhibition model.
In assay [6] the target is T5, rCviUPO (native, non-mutated recombinant CviUPO) (Achaetomiella virescens, UniProt Z9FBJ6W4Y2).
T5 construct: codon-optimized gene in pET23a, expressed in E. coli as active cytosolic enzyme without purification tag; heme-thiolate (EC 1.11.2.1); purified by cation exchange and Superdex 75
T5 sequence (Z9FBJ6W4Y2 1-226): T1 sequence (Z9FBJ6W4Y2 1-226 F87A/T157A) with A87F, A157T
The description is as above. To be noted: 24 mM H2O2, 50 mM phosphate pH 7, 20% acetone.

Assay [7] deals with T1, rCviUPO (native, non-mutated recombinant CviUPO). Described as above. The following applies: 24 mM H2O2, 50 mM phosphate pH 7, 20% acetone; substrate-inhibition model.
In assay [8] the target is T2, rCviUPO (native, non-mutated recombinant CviUPO). The description is as above. To be noted: 24 mM H2O2, 50 mM phosphate pH 7, 20% acetone; substrate-inhibition model.
Assay [9] concerns the target T1, rCviUPO (native, non-mutated recombinant CviUPO). The assay can be described thus: spectrophotometric initial rates, […] nm. The following applies: 24 mM H2O2, 0.1 M acetate pH 3 or 5.

Take `CCCCCCCC/C=C\CCCCCCCC(=O)O` [C18:1, oleic acid]: the “ki” value in [1] worked out at 2900 ± 610 µM; in assay [2], 1360 ± 710 µM; in assay [4] it was 1120 ± 400 µM. Besides, the Km in assay [3] was determined as 89 ± 16.4 µM; in assay [5] it was 278 ± 49 µM; in [6], 58.8 ± 6 µM; in assay [7], 51.6 ± 5.4 µM; in assay [8] it was 399 ± 94.6 µM.

On to `COc1ccc(CO)cc1OC` [veratryl alcohol], for which, in assay [9], the Km was found to be 15000 µM.

These data come from paper PMC9137900, “Engineering Collariella virescens Peroxygenase for Epoxides Production from Vegetable Oil” (Antioxidants, 2022).
